Reference: patent US20160128944A1, “COATED PARTICLES AND COMPOSITIONS COMPRISING SAME” (VYOME BIOSCIENCES PVT. LTD., priority 2013, published 2016)
Where two headings read alike, the source gives them in different places.

Test system: M. furfur
Text: The time-kill assays are used to evaluate efficacy of antimicrobial agents, either singly or in combination, and the results can help in establishing the dose and/or time of application of the active. The time-kill assays can be used to study both concentration-dependent and time-dependent antimicrobial action.
Method: M. furfur cells were suspended in Sabouraud Dextrose Broth (SDB) at inoculum concentration of 7×10^7 cells/ml. Cells were taken from a freshly growing (3-7 days old) plate and cell suspension is vortexed to remove the cell clumps as much as possible. Sterile media were supplemented with chloramphenicol (0.25 mg/ml), cycloheximide (0.04 mg/ml) and olive oil (2%). The media were then supplemented with appropriate concentrations (two-fold serial dilutions using SDB) of zinc pyrithione powder (10 μg/ml and 50 μg/ml) with different concentrations of Capmul 908-P […]. The cultures were incubated on a tube rotator at 34° C. in CO2 incubator.
To measure the colony forming units (CFU), at different time points, aliquots (50 μl) of Malassezia cultures were serially diluted with SDBT medium (SDB containing 0.1% Triton X-100) and plated on SDA plates. The plates were incubated at 34° C. in CO2 incubator for 3 days. The viable colonies were counted and converted to CFU/ml.

## zinc pyrithione [ZPT]
ZPT 10 μg/ml, Capmul 908-P 30 μg/ml, 6 hrs
  Log CFU Count of M. furfur: 6.50 Log CFU
ZPT 10 μg/ml, Capmul 908-P 30 μg/ml, 24 hrs
  Log CFU Count of M. furfur: 5.94 Log CFU
ZPT 10 μg/ml, Capmul 908-P 30 μg/ml, 48 hrs
  Log CFU Count of M. furfur: 5.06 Log CFU
ZPT 10 μg/ml, Capmul 908-P 50 μg/ml, 6 hrs
  Log CFU Count of M. furfur: 6.37 Log CFU
ZPT 10 μg/ml, Capmul 908-P 50 μg/ml, 24 hrs
  Log CFU Count of M. furfur: 5.57 Log CFU
ZPT 10 μg/ml, Capmul 908-P 50 μg/ml, 48 hrs
  Log CFU Count of M. furfur: 4.80 Log CFU
ZPT 10 μg/ml, Capmul 908-P 90 μg/ml, 6 hrs
  Log CFU Count of M. furfur: 6.33 Log CFU
ZPT 10 μg/ml, Capmul 908-P 90 μg/ml, 24 hrs
  Log CFU Count of M. furfur: 5.55 Log CFU
ZPT 10 μg/ml, Capmul 908-P 90 μg/ml, 48 hrs
  Log CFU Count of M. furfur: 4.77 Log CFU
ZPT 10 μg/ml, Capmul 908-P nil, 6 hrs
  Log CFU Count of M. furfur: 6.56 Log CFU
ZPT 10 μg/ml, Capmul 908-P nil, 24 hrs
  Log CFU Count of M. furfur: 6.13 Log CFU
ZPT 10 μg/ml, Capmul 908-P nil, 48 hrs
  Log CFU Count of M. furfur: 5.27 Log CFU
ZPT 50 μg/ml, Capmul 908-P 30 μg/ml, 6 h
  Log CFU Count of M. furfur: 6.06 Log CFU
ZPT 50 μg/ml, Capmul 908-P 30 μg/ml, 24 h
  Log CFU Count of M. furfur: 4.69 Log CFU
ZPT 50 μg/ml, Capmul 908-P 30 μg/ml, 48 h
  Log CFU Count of M. furfur: 3.25 Log CFU
ZPT 50 μg/ml, Capmul 908-P 50 μg/ml, 6 h
  Log CFU Count of M. furfur: 5.94 Log CFU
ZPT 50 μg/ml, Capmul 908-P 50 μg/ml, 24 h
  Log CFU Count of M. furfur: 4.62 Log CFU
ZPT 50 μg/ml, Capmul 908-P 50 μg/ml, 48 h
  Log CFU Count of M. furfur: 3.04 Log CFU
ZPT 50 μg/ml, Capmul 908-P 90 μg/ml, 6 h
  Log CFU Count of M. furfur: 5.52 Log CFU
ZPT 50 μg/ml, Capmul 908-P 90 μg/ml, 24 h
  Log CFU Count of M. furfur: 3.63 Log CFU
ZPT 50 μg/ml, Capmul 908-P 90 μg/ml, 48 h
  Log CFU Count of M. furfur: 2.08 Log CFU
ZPT 50 μg/ml, Capmul 908-P nil, 6 h
  Log CFU Count of M. furfur: 6.43 Log CFU
ZPT 50 μg/ml, Capmul 908-P nil, 24 h
  Log CFU Count of M. furfur: 5.39 Log CFU
ZPT 50 μg/ml, Capmul 908-P nil, 48 h
  Log CFU Count of M. furfur: 3.92 Log CFU
time-kill, ZPT 10 and 50 μg/ml with Capmul 908-P
  anti-microbial activity towards M. furfur in combination with propylene glycol monocaprylate: potentiated with increasing concentration of propylene glycol monocaprylate
